Reference: patent US6391301B1, “Agent for identifying and treating metastasizing tumors” (Forschungszentrum Karlsruhe GmbH, priority 1998, dated 2002)

Each compound was assayed on M-N#1 antibody binding to proteins in lysates from MT-450 cells (assay: Competition of M-N#1 binding with fucose and galactose (immunoprecipitation)). Conditions: increasing amounts of sugar, lysates from radiolabelled MT-450 cells.
Set-up: species or system rat
Description: Immunoprecipitation: cells were labeled by incubation with (^35S)L-methionine ([…]) in methionine-free RPMI medium supplemented with dialyzed FCS for 4 h. For a pulse-chase analysis, cells were incubated with (^35S)L-methionine ([…]) in methionine-free RPMI medium supplemented with dialyzed FCS for 15 minutes, then washed and incubated further with methionine-containing medium. For immunoprecipitations, cells were lyzed in RIPA (radioimmunoprecipitation) buffer, and aliquots were immunoprecipitated with 5 μg of antibodies. To purify proteins which bind to Ulex europaeus lectin, the cells were lyzed with PBS/1% NP40/1 mM PMSF and centrifuged, and the lysates were incubated with Ulex europaeus lectin beads at 4° C. for one hour. The beads were then washed three times with PBS, and the excess buffer was removed. The beads were boiled in 1% SDS/20 mM phosphate at pH 7.0. A 20-fold excess of RIPA buffer was then added, and the supernatant was used for the immunoprecipitation after removal of the Ulex europaeus lectin beads. In experiments in which immunoprecipitated proteins were treated with 0.5 U of N-glycosidase F, 2.5 mU of O-glycosidase or 5 mU of neuraminidase, the antigen-antibody matrix bead complex was initially washed in 100 mM phosphate buffer, pH 7.0. Buffer was removed and then the matrix beads were boiled in 5 μl of 1% SDS/20 mM phosphate, pH 7.0, for 5 minutes. The enzymes were then added in 45 μl of 20 mM phosphate buffer (pH 7.0)/1 mM CaSO4. The efficiency of the enzyme reaction was confirmed by comparison with similar digestive processes on immunoprecipitated CD44v4-v7 protein, which is digested by each of said enzymes. Immunoprecipitated proteins were removed by SDS (sodium dodecyl sulfate) PAGE (polyacrylamide gel electrophoresis). Gels were treated with PPO (2,5-diphenyloxazole) and exposed to X-ray sensitive film material.
Competition of M-N#1 binding with fucose and galactose. […]
For `C[C@@H](O)[C@H](O)[C@H](O)[C@@H](O)C=O` [D-fucose], the “Effect on protein binding to M-N#1 antibody” value (“Effect on protein binding” below) was “inhibited”.
With `C[C@H](O)[C@@H](O)[C@@H](O)[C@H](O)C=O` [L-Fucose] the “Effect on protein binding” value was “no effect”.
With `O=C[C@H](O)[C@@H](O)[C@@H](O)[C@H](O)CO` [D-galactose] the “Effect on protein binding” value was “inhibited”.
